Earlier results, collected in patent US8137922B2, “Method for diagnosing the metabolic syndrome (MS)” (Hans Dieplinger, priority 2007, dated 2012).
Where two headings read alike, the source gives them in different places.

Molecular target: T1, afamin (Homo sapiens, UniProt P43652)
T1 sequence (P43652 22-599): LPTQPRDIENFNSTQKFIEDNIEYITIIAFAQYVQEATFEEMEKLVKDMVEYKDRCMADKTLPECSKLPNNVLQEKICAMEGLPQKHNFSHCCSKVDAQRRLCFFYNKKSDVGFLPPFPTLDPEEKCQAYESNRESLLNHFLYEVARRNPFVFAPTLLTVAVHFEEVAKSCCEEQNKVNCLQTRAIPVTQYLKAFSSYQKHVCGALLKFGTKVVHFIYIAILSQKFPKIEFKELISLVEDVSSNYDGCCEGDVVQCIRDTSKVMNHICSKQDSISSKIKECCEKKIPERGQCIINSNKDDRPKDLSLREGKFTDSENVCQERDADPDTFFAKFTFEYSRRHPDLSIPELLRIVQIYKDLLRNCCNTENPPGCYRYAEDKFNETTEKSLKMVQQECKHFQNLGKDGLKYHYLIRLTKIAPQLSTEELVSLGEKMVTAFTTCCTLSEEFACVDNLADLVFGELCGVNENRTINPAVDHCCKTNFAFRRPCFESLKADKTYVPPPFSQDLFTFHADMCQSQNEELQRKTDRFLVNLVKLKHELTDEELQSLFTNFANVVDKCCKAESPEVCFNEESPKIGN
Conditions: for maximum displacement of tocopherol: 2 μM afamin, 60 μM alpha-[14C]tocopherol, 100-fold excess of non-labeled competitor

Compound | maximum displacement of tocopherol [%] | Hill coefficient (calculated, indicates that afamin could bind pairs of tocopherol) | Kd (first of two binding sites, read-out: KD1, affinity of afamin for vitamin E) [µM] | Kd (second of two binding sites, read-out: KD2, affinity of afamin for vitamin E) [µM] | maximal binding (Bmax) (when both sites are activated)
Cc1c(C)c2c(c(C)c1O)CC[C@@](C)(CCC[C@H](C)CCC[C@H](C)CCCC(C)C)O2 [alpha-tocopherol] | 80 |  |  |  | 
Cc1c(O)cc2c(c1C)O[C@](C)(CCC[C@H](C)CCC[C@H](C)CCCC(C)C)CC2 [gamma-tocopherol] | 80 |  |  |  | 
vitamin E |  | 1.8 | 6.3 | 22 | 18 molecules of Vitamin E
